These results are taken from patent US20250101057A1, “SOLID FORMS” (Gilead Sciences, Inc., priority 2023, published 2025).

A short description of this data set: Dynamic Vapor Sorption (DVS) hygroscopicity. The data set is classed as physicochemical. The conditions noted are these: for DVS (%): Table 6 summary of crystalline Forms I-V; for hygroscopicity by DVS analysis (in words): 0 to 90% RH at 25° C.; for DVS weight change: from 0 to 90% RH at 25° C. As for the experimental part:
Dynamic Vapor Sorption (DVS) was used to study hygroscopicity on Model Q5000 SA (TA Instruments, New Castle, DE). A sample (1-10 mg) was placed in an aluminum pan and loaded on the sample side of the twin pan balance. The water sorption and desorption were studied as a function of relative humidity (RH) at 25° C. in 10% RH increments from 0% RH to 90% RH and then back to 0%. […] Data analysis was performed using Universal Analysis 2000 Version 4.7A (TA Instruments, New Castle, DE).

Setting [1] is: listed as Compound 1, crystalline Form III.
Where [2] appears, read: listed as Compound 1, crystalline Form V.
Where [3] appears, read: listed as Compound 1, crystalline Form IV.
Where [4] appears, read: listed as Compound 1, crystalline Form II.

For the molecule `C#C[C@]1(COC(=O)Cc2ccccc2)O[C@@H](n2cnc3c(N)nc(F)nc32)C[C@@H]1OC(=O)Cc1ccccc1` [Form I, (2R,3S,5R)-5-(6-amino-2-fluoro-9H-purin-9-yl)-2-ethynyl-2-((2-phenylacetoxy)methyl)tetrahydrofuran-3-yl 2-phenylacetate], where the note is “listed as I”, the “DVS (%)” value is listed as 0.85%.

`C#C[C@]1(COC(=O)Cc2ccccc2)O[C@@H](n2cnc3c(N)nc(F)nc32)C[C@@H]1OC(=O)Cc1ccccc1` [Form III, (2R,3S,5R)-5-(6-amino-2-fluoro-9H-purin-9-yl)-2-ethynyl-2-((2-phenylacetoxy)methyl)tetrahydrofuran-3-yl 2-phenylacetate]: under setting [1], the “hygroscopicity by DVS analysis (in words)” value (from here on “hygroscopicity”) is on record as “slightly hygroscopic” and the DVS weight change is listed as approximately 1.2%. In addition, the “DVS (%)” value (listed as III) is recorded as 1.2%.

For `C#C[C@]1(COC(=O)Cc2ccccc2)O[C@@H](n2cnc3c(N)nc(F)nc32)C[C@@H]1OC(=O)Cc1ccccc1` [Form V, (2R,3S,5R)-5-(6-amino-2-fluoro-9H-purin-9-yl)-2-ethynyl-2-((2-phenylacetoxy)methyl)tetrahydrofuran-3-yl 2-phenylacetate], under setting [2], the “hygroscopicity” value is reported as “non-hygroscopic” and the DVS weight change is listed as approximately 0.1%. Further, where the note is “listed as V”, the “DVS (%)” value came out at 0.10%.

As for `C#C[C@]1(COC(=O)Cc2ccccc2)O[C@@H](n2cnc3c(N)nc(F)nc32)C[C@@H]1OC(=O)Cc1ccccc1` [Form IV, (2R,3S,5R)-5-(6-amino-2-fluoro-9H-purin-9-yl)-2-ethynyl-2-((2-phenylacetoxy)methyl)tetrahydrofuran-3-yl 2-phenylacetate], under setting [3], the “hygroscopicity” value is “non-hygroscopic” and the DVS weight change is approximately 0.16%. For the same molecule, the “DVS (%)” value (listed as IV) amounted to 0.16%.

`C#C[C@]1(COC(=O)Cc2ccccc2)O[C@@H](n2cnc3c(N)nc(F)nc32)C[C@@H]1OC(=O)Cc1ccccc1` [Form II, (2R,3S,5R)-5-(6-amino-2-fluoro-9H-purin-9-yl)-2-ethynyl-2-((2-phenylacetoxy)methyl)tetrahydrofuran-3-yl 2-phenylacetate]: under setting [4], the “hygroscopicity” value is reported as “non-hygroscopic” and the DVS weight change result was “around 0.1%”. The “DVS (%)” value (listed as II) is 0.08%.
